Patent EP1325735A2, “Use of L-arginine derivatives as photo-protecting agents and enhancing melanic response in cosmetic compositions” (EXSYMOL S.A.M., priority 2002, dated 2003)
Square brackets hold non-standard residues; d marks the D form. Peptide text beside a SMILES is read from it. ξ: configuration not given here. ξM = CSCCC(N)C(=O)O

Experiments:
[1] = Hydroxyl radical OH• scavenging, deoxyribose protection test (Halliwell method); details: rate constant of S on OH•; mean (± SD) of 3 independent experiments
From the text: Le test, réalisé selon la méthode décrite par B. Halliwell et coll. […] Le pouvoir protecteur est déduit de la comparaison des cinétiques de réaction, exprimées par une constante de vitesse de S sur OH• (piégeage de OH•).
Les constantes de vitesse correspondent à la valeur moyenne (± D.S.) calculée à partir de 3 expériences indépendantes

[2] = test system: co-culture in vitro de mélanocytes et de kératinocytes; experiment: In vitro melanocyte/keratinocyte co-culture model of the "mélano-épidermique" unit: melanic response after UV; format: cell-based; set-up: unit not given here; details: for réponse mélanique: co-culture + MdC "ARG-free" irradiée par UVB: ARG-free medium (insufficient physiological arginine); for réponse mélanique: co-culture + MdC "ARG-free" irradiée par UVB / réponse mélanique: co-culture + MdC "ARG = 84mg/L" irradiée par UVB: UVB irradiated; for réponse mélanique: co-culture + MdC "ARG = 84mg/L" irradiée par UVB / réponse mélanique: co-culture + MdC "ARG = 84mg/L" sans irradiation: standard medium with supra-physiological arginine; for réponse mélanique: co-culture + MdC "ARG = 84mg/L" sans irradiation: no irradiation
From the text: Test 2 : démonstration de l'effet des dérivés d'arginine sur l'unité "mélano-épidermique" et la réponse mélanique
Nous avons mis au point un modèle expérimental reproduisant l'unité "mélano-épidermique", et qui permet de mettre en évidence les effets d'un apport exogène de dérivés d'arginine sur la réponse mélanique à la suite de rayonnements U.V. (effet direct sur les mélanocytes et indirect via la "communication cellulaire" entre kératinocytes et mélanocytes). Il s'agit d'un modèle de co-culture in vitro de mélanocytes et de kératinocytes (voir représentation schématique du modèle), possédant un milieu de culture (MdC) particulier. [drawing]
Le fond poreux de la chambre supérieure permet le passage, d'un compartiment à l'autre, des facteurs endogènes sécrétés par les cellules (NO) et la substance (S).

SMILES	constante de vitesse de piégeage [1]	réponse mélanique: co-culture + MdC "ARG-free" irradiée par UVB ([2]; substance 0,12 mM)	réponse mélanique: co-culture + MdC "ARG = 84mg/L" irradiée par UVB ([2]; substance 0,12 mM)	réponse mélanique: co-culture + MdC "ARG = 84mg/L" sans irradiation ([2]; substance 0,12 mM)	réponse mélanique: co-culture + MdC "ARG-free" irradiée par UVB ([2]; substance 0,24 mM)	réponse mélanique: co-culture + MdC "ARG = 84mg/L" irradiée par UVB ([2]; substance 0,24 mM)	réponse mélanique: co-culture + MdC "ARG = 84mg/L" sans irradiation ([2]; substance 0,24 mM)	réponse mélanique: co-culture + MdC "ARG-free" irradiée par UVB ([2]; substance 0,48 mM)	réponse mélanique: co-culture + MdC "ARG = 84mg/L" irradiée par UVB ([2]; substance 0,48 mM)	réponse mélanique: co-culture + MdC "ARG = 84mg/L" sans irradiation ([2]; substance 0,48 mM)
CCOC(=O)[C@@H](NC(=O)[C@H](CCCNC(=N)N)NC(C)=O)[C@@H](C)CC [NAc-L-ARG-L-ILE-OEt, N-acetyl-L-arginyl-(D ou L)-isoleucine ethyl ester] (Ac-Arg-Ile-OEt)	6,1 (±0,4)x10^9 M^-1.S^-1									
CCOC(=O)[C@H](CCCNC(=N)N)NC(C)=O [NAc-L-ARG-OEt, N-acetyl-L-arginine ethyl ester]	5,2 (±0,2)x10^9 M^-1.S^-1	30,7	39,5	23,1	37,5	42,6	20,9	43,8	38,4	24,4
CCOC(=O)[C@H](CCCNC(=N)N)NC(=O)[C@H](Cc1ccc(O)cc1)NC(C)=O [NAc-L-TYR-L-ARG-OEt, N-acetyl-L-tyrosyl-L-arginine ethyl ester]	8,1 (±0,3)x10^9 M^-1.S^-1									
CCOC(=O)[C@H](CCCNC(=N)N)NC(=O)[C@H](Cc1c[nH]cn1)NC(C)=O [NAc-L-HIS-L-ARG-OEt, N-acetyl-(D ou L)-histidyl-L-arginine ethyl ester] (Ac-His-Arg-OEt)	9,0 (±0,2)x10^9 M^-1.S^-1	38,8	41,6	22,7	41,0	36,2	22,5	42,5	40,7	18,8
N=C(N)NCCC[C@H](N)C(=O)O [L-arginine]	1,5 (±0,2)x10^9 M^-1.S^-1									
CCOC(=O)[C@H](CCCNC(=N)N)NC(=O)C(CCSC)NC(C)=O (stereo partly drawn) [NAc-(D,L)-MET-L-ARG-OEt, N-acetyl-(D ou L)methionyl-L-arginine ethyl ester] (Ac-[ξM]-Arg-OEt)	0,7 (±0,2)x10^10 M^-1.S^-1									
N[C@@H](Cc1c[nH]cn1)C(=O)O [L-histidine, reference compound]	2,5 (±0,2)x10^9 M^-1.S^-1									
